Source: PMC13635228 (Nature Communications, 2026)

Key:
[1] = test system: human C3aR; assay: Transducer-coupling assays taken together; type: cell-based
[2] = test system: mouse C3aR; assay: Transducer-coupling assays taken together; type: cell-based
[3] = test system: C3aR; conditions: cited from earlier work

Molecule: hC3a: full-length recombinant human complement anaphylatoxin C3a, natural agonist of C3aR, expressed in E. coli
- efficacy [1]: full agonists
- potency, human vs. mouse C3a [1]: more potent
- potency and efficacy, human vs. mouse C3a ([2]; mouse C3aR): equally potent and efficacious

Molecule: NC(N)=NCCC[C@H](NC(=O)COCC(c1ccccc1)c1ccccc1)C(=O)O [SB290157, reference compound]
- agonist profile, G-protein activation ([1]; compared to C3a): partial agonist profile
- βarr recruitment response ([1]; compared to C3a): weak response in βarr recruitment
- activation of mouse C3aR ([2]; G protein activation or β-arrestin recruitment): did not activate mouse C3aR
- agonistic activity ([3]; various cellular assays, ref [45]-[47]): agonistic activity

Molecule: mC3a: full-length recombinant mouse complement anaphylatoxin C3a (S1-R78), expressed in E. coli
- efficacy [1]: full agonists
- potency and efficacy, human vs. mouse C3a ([2]; mouse C3aR): equally potent and efficacious

Molecule: mC3a-d-Arg: mouse C3a with terminal arginine removed
- activity ([2]; mouse C3aR): weak but measurable activity

Molecule: C3a^-d-Arg: C3a with terminal arginine removed by carboxypeptidases; species not stated
- activity at human and mouse C3aR ([3]; ref [25],[30],[67]): very weak activity
